Among the data in patent US10131644B2, “Aryl sultam derivatives as RORc modulators” (Genentech, Inc., priority 2014, dated 2018) are IC50 values, retold here.

For the experiment, the target named is T1, RORc (Homo sapiens, UniProt P51449).
T1 sequence (P51449 269-508 limits assumed): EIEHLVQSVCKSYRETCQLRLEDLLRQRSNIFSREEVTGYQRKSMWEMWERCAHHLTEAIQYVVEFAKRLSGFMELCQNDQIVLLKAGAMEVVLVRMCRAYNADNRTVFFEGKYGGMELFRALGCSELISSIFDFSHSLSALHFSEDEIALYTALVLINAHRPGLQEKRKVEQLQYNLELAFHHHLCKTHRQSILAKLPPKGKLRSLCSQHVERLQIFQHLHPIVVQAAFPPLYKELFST
Briefly: In vitro RORc ligand binding assay (25-[3H]hydroxycholesterol displacement). Particulars: IC50, IC50 values for RORc; unit inferred.

Procedure: This assay was used to determine a compound's potency in inhibiting activity of RORc by determining, Kiapp, IC50, or percent inhibition values.
On day of the assay, 100 uL of 0.05% CHAPS (in deionized H2O) was added to all wells of the GFB Unifilter plate and allowed soak for 1 h. A wash buffer of 50 mM HEPES (pH 7.4), 150 mM NaCl, and 5 mM MgCl2 was prepared to wash the filter plate. To prepare an assay buffer, BSA was added to the wash buffer to reach 0.01% and DTT was added to reach 1 mM.
The 20× compound stocks were diluted in DMSO with Assay Buffer 4-fold to reach 5× the final test concentration in 25% DMSO (10 uL compound+30 uL Assay Buffer). Solutions were mixed by aspiration several times with a pipette set on 50 uL volume. For the assay, 10 uL of 5× compound stock solutions in 25% DMSO were added to the assay plate in duplicate.
For two point screening, 10 mM stock compound solutions were diluted in DMSO to obtain 200 uM (20× the high test concentration) and then diluted 10-fold further to reach 20 uM (20× the low test concentration). The 20× stocks were diluted 4-fold with Assay Buffer (10 uL compound+30 uL Assay Buffer) to reach 5× the test concentrations (50 uM and 5 uM) and 10 uL were added to two assay plates for the duplicate wells. With each concentration tested on 2 plates, each set of 80 compounds used 4 assay plates (1 uM and 10 uM, with n=2).
For 25-hydroxycholesterol in 25% DMSO/75% Assay Buffer; 10 uL per well was used for NSB samples. Wells for Total Binding and No Receptor sample determination contained 10 uL of 25% DMSO/75% Assay Buffer per well.
Add 20 uL to all wells to reach 6 nM final in the assay.
Stock receptor solution was diluted in assay buffer to obtain 1.5 ug/mL in Assay Buffer. 20 uL was added to all wells. For No R samples, 20 uL Assay Buffer was substituted for receptor solution.
Assay plates were 96-well polypropylene V-bottom plates. 10 uL of 5× compound in 25% DMSO/75% Assay Buffer was added to Test wells. 10 uL of 25% DMSO/75% Assay Buffer was added to Total Binding or No Receptor wells. 10 uL of 5 uM 25-hydroxycholesterol in 25% DMSO/75% Assay Buffer was added to NSB wells. […] 20 uL of 1.5 ug/mL RORc receptor was added to wells (or 40 uL Assay Buffer to No R wells). Following addition to the wells, the plates were incubated 3 h at 25° C.
Using a Packard Filtermate Harvester, the filter plate were washed 4 times following transfer of the incubated samples. Plates were dry-filtered completely (2 h at 50° C. or overnight at room temperature). 50 uL Microscint 0 was added to all wells and read on Topcount protocol Inverted.
For NSB wells, 1 uM 25-hydroxycholesterol was also present.

Regarding `CC(=O)N1CCC(OCC(O)CO)(c2cc(F)c(CN3[C@@H](C)CC[C@H](c4ccccc4)S3(=O)=O)cc2F)CC1` (stereo in doubt) [Compound 169, 1-[4-[2,5-difluoro-4-[[(3S,6R)-3-methyl-1,1-dioxo-6-phenyl-thiazinan-2-yl]methyl]phenyl]-4-[(2R)-2,3-dihydroxypropoxy]-1-piperidyl]ethanone], the IC50 (as a rule, the point on the concentration scale where inhibition reaches its midpoint) stood at 20.8 nM.
